Consider twelve compounds from ChEMBL document CHEMBL1140241, “Discovery of new diphenyloxazole derivatives containing a pyrrolidine ring: orally active prostacyclin mimetics. Part 2” (Bioorg Med Chem Lett, 2005).

A short description of data set [1]: In vitro inhibition of ADP-induced platelet aggregation in human platelet rich plasma. Type of data set: functional, cell-free.
The next data set is filed under the species Rattus norvegicus. As to the kind of experiment: In vitro inhibition of ADP-induced platelet aggregation in rat platelet rich plasma. The data set is classed as functional.
For another data set, the species on record is Canis familiaris. As to the kind of experiment: In vitro inhibition of ADP-induced platelet aggregation in dog platelet rich plasma. The data set is classed as functional. Conditions: Canis lupus familiaris.
Data set [2] in a line: Area Under Plasma concentration-time curve after peroral administration at a dose of 0.032 mg/kg in dog. Type of data set: ADME, organism-based, Canis lupus familiaris. Further details: dose 0.032 mg/kg, route oral. Conditions: po.
The nature of data set [3]: In vitro inhibition of ADP-induced platelet aggregation in monkey platelet rich plasma. The data set is classed as functional. The settings on record: Cercopithecidae.
Data set [4] in a line: Maximum (peak) plasma drug concentration after peroral administration at a dose of 0.032 mg/kg in dog. The data set is classed as ADME, organism-based, Canis lupus familiaris. Also noted: dose 0.032 mg/kg, route oral. Conditions: po.
A short description of data set [5]: Maximum (peak) plasma drug concentration after peroral administration at a dose of 3.2 mg/kg in rat (n=3). The data set is classed as ADME, organism-based. Also noted: dose 3.2 mg/kg, route oral. The settings on record: po.
The nature of data set [6]: Elimination half-life after intravenous administration at a dose of 0.032 mg/kg in dog. Type of data set: ADME, organism-based, Canis lupus familiaris. Further details: dose 0.032 mg/kg, route intravenous. The settings on record: in vivo.
A short description of data set [7]: Elimination half-life after intravenous administration at a dose of 3.2 mg/kg in rat (n=3). Further details: dose 3.2 mg/kg, route intravenous. Conditions: in vivo. Type of data set: ADME, organism-based.
A short description of data set [8]: Area under plasma concentration-time curve after peroral administration at a dose of 3.2 mg/kg in rat (n=3). The settings on record: po. Type of data set: ADME, organism-based. Further details: dose 3.2 mg/kg, route oral.
Data set [9] can be described thus: Total body clearance of drug from the plasma after intravenous administration at 3.2 mg/kg in rat. The data set is classed as ADME, organism-based. Also noted: dose 3.2 mg/kg, route intravenous. Conditions: read-out: CLtot.
Data set [10] in a line: Total body clearance of drug from the plasma after intravenous administration at 0.032 mg/kg in dog. The data set is classed as ADME, organism-based, Canis lupus familiaris. Further details: dose 0.032 mg/kg, route intravenous. The settings on record: read-out: CLtot.
A short description of data set [11]: Percent oral bioavailability after intravenous administration at 3.2 mg/kg in rat. Type of data set: ADME, organism-based. Conditions: in vivo, read-out: Ba.
Data set [12] can be described thus: Percent oral bioavailability of the drug after intravenous administration at 0.032 mg/kg in dog. Conditions: in vivo, read-out: Ba. Type of data set: ADME, organism-based, Canis lupus familiaris.

Some results are limits rather than exact numbers.

By IC50 is commonly meant the concentration that inhibits the measured activity by half. On to `O=C(O)COc1cccc2c1CCC[C@H]2NCc1nc(-c2ccccc2)c(-c2ccccc2)o1`, for which the IC50 in [1] amounted to 0.19 µM; in the data set filed under Rattus norvegicus, 5 µM.

For the compound `O=C(O)COc1cccc2c1CCC[C@H]2OCc1nc(-c2ccccc2)c(-c2ccccc2)o1`, the IC50 in [1] is 0.14 µM.

`CCC/C(CC1CCc2c(cccc2OCC(=O)O)C1)=N\OC(c1ccccc1)c1ccccc1` (configuration not stated) [AP-227] had an IC50 in [1] of 0.15 µM.

Regarding `O=C(O)COc1cccc2c1CCC[C@@H]2N1CCC[C@H]1c1nc(-c2ccccc2)c(-c2ccccc2)o1`, the IC50 in [1] amounted to 0.063 µM; in the data set filed under Rattus norvegicus, 2.2 µM.

Turning to `O=C(O)COc1cccc2c1CCC[C@@H]2OCc1nc(-c2ccccc2)c(-c2ccccc2)o1`, in [1], the IC50 was 1.4 µM.

As for `O=C(O)COc1cccc2c1CCC[C@@H]2NCc1nc(-c2ccccc2)c(-c2ccccc2)o1`, the IC50 in data set [1] turned out to be 1.5 µM.

With `O=C(O)COc1cccc(C[C@@H]2CCCC=C2c2nc(-c3ccccc3)c(-c3ccccc3)o2)c1`, the IC50 in the data set filed under Canis familiaris came to 1.3 µM; in data set [1], 0.06 µM; in the data set listed under Rattus norvegicus it was 1.2 µM.

As to `CC#CCC(C)[C@H](O)/C=C/[C@@H]1[C@H]2C/C(=C/CCCC(=O)O)C[C@H]2C[C@H]1O` (some centres not stated) [ILOPROST], in [1], it took 0.0025 µM to reach half-maximal inhibition (IC50).

With `O=C(O)COc1cccc2c1CCC[C@H]2N1CCC[C@H]1c1nc(-c2ccccc2)c(-c2ccccc2)o1`, the IC50 was 0.64 µM in data set [1] and over 10 µM in the data set filed under Rattus norvegicus.

In the case of `O=C(O)COc1cccc2c1CCC[C@@H]2N1CCC[C@@H]1c1nc(-c2ccccc2)c(-c2ccccc2)o1`, the IC50 in data set [1] was 0.87 µM; in the data set listed under Rattus norvegicus, over 10 µM.

By AUC is commonly meant the area under the concentration-time curve, a measure of exposure. The term Cmax denotes the peak of the concentration-time curve. A word on the half-life: it is how long it takes for the measured level to halve. Consider `O=C([O-])COc1cccc2c1CCC[C@H]2N1CCC[C@@H]1c1nc(-c2ccccc2)c(-c2ccccc2)o1.[Na+]`, for which the area under the curve (AUC) came out at 327 ng·h/mL in data set [2] and 172 ng·h/mL in data set [8]. The IC50 in the data set filed under Canis familiaris was 0.78 µM; in [1], 0.019 µM; in [3] it was 0.059 µM; in the data set listed under Rattus norvegicus it was 0.63 µM. Further, the Cmax in data set [4] stood at 61.2 ng/mL; in [5], 187 ng/mL. Further, the half-life in data set [6] is 2.25 h; in data set [7], 0.21 h. Besides, the results for the clearance in data set [9] and in data set [10] were 89.2 mL/min/kg and 1 mL/min/kg, respectively. Besides, the bioavailability came to 31% in data set [11] and 66% in data set [12].

Regarding `O=C(O)COc1cccc2c1CCCC2CCc1nc(-c2ccccc2)c(-c2ccccc2)o1` (configuration not stated), the IC50 in data set [1] is 1 µM; in the data set listed under Rattus norvegicus, over 10 µM.
